Literature values as cited in US20060093571A1, “Hair and skin protecting compositions based on esters or ethers of betulin” (priority 2004, published 2006).

biological target: T1, elastase (Homo sapiens, UniProt P08246); details: known from literature
T1 sequence (P08246 30-247 limits assumed): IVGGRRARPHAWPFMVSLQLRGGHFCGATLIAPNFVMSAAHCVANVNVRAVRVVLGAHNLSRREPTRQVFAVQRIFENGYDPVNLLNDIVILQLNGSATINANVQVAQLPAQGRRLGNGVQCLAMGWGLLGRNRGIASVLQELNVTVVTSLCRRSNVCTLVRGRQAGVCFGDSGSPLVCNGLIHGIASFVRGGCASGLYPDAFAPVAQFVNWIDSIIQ

| inhibition of enzymatic activity of elastase | SMILES |
| --- | --- |
| inhibit | CC1(C)CC[C@]2(C(=O)O)CC[C@]3(C)C(=CC[C@@H]4[C@@]5(C)CC[C@H](O)C(C)(C)[C@@H]5CC[C@]43C)[C@@H]2C1 [oleanolic acid] |
| inhibit | C[C@H]1[C@H](C)CC[C@]2(C(=O)O)CC[C@]3(C)C(=CC[C@@H]4[C@@]5(C)CC[C@H](O)C(C)(C)[C@@H]5CC[C@]43C)[C@H]12 [ursolic acid] |

| SMILES | inhibition of enzymatic activity of elastase |
| --- | --- |
| C=C(C)[C@@H]1CC[C@]2(CO)CC[C@]3(C)[C@H](CC[C@@H]4[C@@]5(C)CC[C@H](O)C(C)(C)[C@@H]5CC[C@]43C)[C@@H]12 [Betulin] | inhibit |

tested on: not given; details: not given

| solubility in polar and non-polar solvents | SMILES |
| --- | --- |
| poor solubility | C=C(C)[C@@H]1CC[C@]2(C(=O)O)CC[C@]3(C)[C@H](CC[C@@H]4[C@@]5(C)CC[C@H](O)C(C)(C)[C@@H]5CC[C@]43C)[C@@H]12 [betulinic acid] |
| poor solubility | CC1(C)CC[C@]2(C(=O)O)CC[C@]3(C)C(=CC[C@@H]4[C@@]5(C)CC[C@H](O)C(C)(C)[C@@H]5CC[C@]43C)[C@@H]2C1 [oleanolic acid] |
| poor solubility | C[C@H]1[C@H](C)CC[C@]2(C(=O)O)CC[C@]3(C)C(=CC[C@@H]4[C@@]5(C)CC[C@H](O)C(C)(C)[C@@H]5CC[C@]43C)[C@H]12 [ursolic acid] |

| SMILES | solubility in polar and non-polar solvents |
| --- | --- |
| C=C(C)[C@@H]1CC[C@]2(CO)CC[C@]3(C)[C@H](CC[C@@H]4[C@@]5(C)CC[C@H](O)C(C)(C)[C@@H]5CC[C@]43C)[C@@H]12 [Betulin] | poor solubility |
